# Patent US11685734B2, “ATM kinase inhibitors and compositions and methods of use thereof” (CHDI Foundation, Inc., priority 2019, dated 2023)
# Legend:
# [1] = molecular target: Recombinant, full length human FLAG-tagged ATM (Homo sapiens (Human), UniProt Q13315); assay: ATM ELISA for p53 S15 phosphorylation; format: biochemical; conditions: for IC50: 0.75 nM ATM, 25 nM p53, 10 μM ATP, 30 min at 20° C., read-out: ATM BIO IC50
# Experimental: ATM: Recombinant, full length human FLAG-tagged ATM activity (Eurofins 14-933) was measured in an ELISA for p53 S15 phosphorylation, in a 384 well V-bottom polypropylene plate (Greiner Bio One 781280). Reactions contained 0.75 nM ATM, 25 nM full length myc tagged p53 (Eurofins 23-034), 10 μM UltraPure ATP (Promega V915B) and serial dilutions of inhibitors (0.1% DMSO final) in 25 mM HEPES, pH 7.5. 5 mM MgCl2, 2.5 mM MnCl2, 0.006% Brij-35, 0.5% glycerol, 0.1 mg/ml BSA, 0.5 mM DTT and were allowed to proceed for 30 min at 20° C. 70 mM EDTA final terminated the kinase reactions. An aliquot of the terminated reaction (25 μl) was transferred to a 384-well, high binding microplate (Greiner Bio One 781061), precoated with anti-myc capture antibody overnight (Millipore 05-724) diluted in 1:1000 in PBS, then blocked with Odyssey blocking buffer (LI-COR Biosciences 92740000) for 60 min at 20° C. The terminated reaction was allowed to capture for 2 h at 20° C. Phosphorylation was measured using an antibody specific to p53 S15 phosphorylation (1:5000 Abcam ab38497), anti-rabbit HRP (1:1000 Cell Signalling Technology, 7074) and TMB (ab171522). Antibodies were diluted in Odyssey blocking buffer and incubated for 60 min at 20° C. Three washes with PBS containing 0.05% (v/v) Tween 20 (PBS-T) were performed between each incubation. The TMB reaction was stopped with an equal volume of 0.2 M sulfuric acid and absorbance read at 450 nm on the Perkin Elmer Envision within 30 min of terminating the reaction. […] IC50 values represent the mean from at least two independent experiments.
# [2] = molecular target: cellular ATM activity (Homo sapiens (Human), UniProt Q13315); assay: Inhibition of cellular ATM activity: etoposide-stimulated KAP1 phosphorylation in U20S cells; format: cell-based; conditions: 100 μM etoposide, 60 min, read-out: ATM CELL IC50
# Experimental: Inhibition of cellular ATM activity was determined by changes in etoposide-stimulated KAP1 phosphorylation, based on the work of Guo et al. 2014.
# Cryopreserved U20S cells were plated overnight at 6 k cells/well in black walled, clear bottomed 384 well plates (Greiner Bio One 781090). After overnight incubation (37 C, 5% CO2), cells were incubated with titrations of test compounds (0.3% DMSO final) in the presence of 100 μM etoposide (Sigma E1383) to stimulate ATM via induction of double stranded DNA breaks. After 60 min, cells were fixed using 100% cold methanol and incubated at −20° C. for 10 min. Fixed cells were washed with PBS containing 0.05% (v/v) Tween 20 (PBS-T) prior to a 60 minute blocking step in Odyssey blocking buffer (LI-COR Biosciences 92740000). Primary antibodies (1:1000 phosphorylated KAP1: Cell Signalling Technology 4127, 1:5000 total KAP1: Cell Signaling Technology 5868) were diluted in Odyssey blocking buffer and incubated overnight at 4° C., before addition of IRDye(R) conjugated secondary antibodies (LI-COR Biociences 926-32211, LI-COR Biosciences 926-68070) diluted 1:2000 in Odyssey blocking buffer for 60 min at room temperature and detection by LI-COR Odyssey (ImageStudio version 2.1.10, focus offset 4 mm, resolution 169 μm, lowest quality, intensities of 1 and 3 for 700 and 800 channels respectively). Immunoreactivity was quantified and the ratio of phosphorylated KAP1 calculated by dividing by the total KAP1 immunoreactivity. The percentage of inhibition was calculated for each concentration of compound using 100% (100 μM etoposide+30 μM KU-60019) and 0% effect controls (100 μM etoposide+DMSO). IC50 values represent the mean from at least two independent experiments.
# Chain of Recombinant, full length human FLAG-tagged ATM (Q13315 whole entry): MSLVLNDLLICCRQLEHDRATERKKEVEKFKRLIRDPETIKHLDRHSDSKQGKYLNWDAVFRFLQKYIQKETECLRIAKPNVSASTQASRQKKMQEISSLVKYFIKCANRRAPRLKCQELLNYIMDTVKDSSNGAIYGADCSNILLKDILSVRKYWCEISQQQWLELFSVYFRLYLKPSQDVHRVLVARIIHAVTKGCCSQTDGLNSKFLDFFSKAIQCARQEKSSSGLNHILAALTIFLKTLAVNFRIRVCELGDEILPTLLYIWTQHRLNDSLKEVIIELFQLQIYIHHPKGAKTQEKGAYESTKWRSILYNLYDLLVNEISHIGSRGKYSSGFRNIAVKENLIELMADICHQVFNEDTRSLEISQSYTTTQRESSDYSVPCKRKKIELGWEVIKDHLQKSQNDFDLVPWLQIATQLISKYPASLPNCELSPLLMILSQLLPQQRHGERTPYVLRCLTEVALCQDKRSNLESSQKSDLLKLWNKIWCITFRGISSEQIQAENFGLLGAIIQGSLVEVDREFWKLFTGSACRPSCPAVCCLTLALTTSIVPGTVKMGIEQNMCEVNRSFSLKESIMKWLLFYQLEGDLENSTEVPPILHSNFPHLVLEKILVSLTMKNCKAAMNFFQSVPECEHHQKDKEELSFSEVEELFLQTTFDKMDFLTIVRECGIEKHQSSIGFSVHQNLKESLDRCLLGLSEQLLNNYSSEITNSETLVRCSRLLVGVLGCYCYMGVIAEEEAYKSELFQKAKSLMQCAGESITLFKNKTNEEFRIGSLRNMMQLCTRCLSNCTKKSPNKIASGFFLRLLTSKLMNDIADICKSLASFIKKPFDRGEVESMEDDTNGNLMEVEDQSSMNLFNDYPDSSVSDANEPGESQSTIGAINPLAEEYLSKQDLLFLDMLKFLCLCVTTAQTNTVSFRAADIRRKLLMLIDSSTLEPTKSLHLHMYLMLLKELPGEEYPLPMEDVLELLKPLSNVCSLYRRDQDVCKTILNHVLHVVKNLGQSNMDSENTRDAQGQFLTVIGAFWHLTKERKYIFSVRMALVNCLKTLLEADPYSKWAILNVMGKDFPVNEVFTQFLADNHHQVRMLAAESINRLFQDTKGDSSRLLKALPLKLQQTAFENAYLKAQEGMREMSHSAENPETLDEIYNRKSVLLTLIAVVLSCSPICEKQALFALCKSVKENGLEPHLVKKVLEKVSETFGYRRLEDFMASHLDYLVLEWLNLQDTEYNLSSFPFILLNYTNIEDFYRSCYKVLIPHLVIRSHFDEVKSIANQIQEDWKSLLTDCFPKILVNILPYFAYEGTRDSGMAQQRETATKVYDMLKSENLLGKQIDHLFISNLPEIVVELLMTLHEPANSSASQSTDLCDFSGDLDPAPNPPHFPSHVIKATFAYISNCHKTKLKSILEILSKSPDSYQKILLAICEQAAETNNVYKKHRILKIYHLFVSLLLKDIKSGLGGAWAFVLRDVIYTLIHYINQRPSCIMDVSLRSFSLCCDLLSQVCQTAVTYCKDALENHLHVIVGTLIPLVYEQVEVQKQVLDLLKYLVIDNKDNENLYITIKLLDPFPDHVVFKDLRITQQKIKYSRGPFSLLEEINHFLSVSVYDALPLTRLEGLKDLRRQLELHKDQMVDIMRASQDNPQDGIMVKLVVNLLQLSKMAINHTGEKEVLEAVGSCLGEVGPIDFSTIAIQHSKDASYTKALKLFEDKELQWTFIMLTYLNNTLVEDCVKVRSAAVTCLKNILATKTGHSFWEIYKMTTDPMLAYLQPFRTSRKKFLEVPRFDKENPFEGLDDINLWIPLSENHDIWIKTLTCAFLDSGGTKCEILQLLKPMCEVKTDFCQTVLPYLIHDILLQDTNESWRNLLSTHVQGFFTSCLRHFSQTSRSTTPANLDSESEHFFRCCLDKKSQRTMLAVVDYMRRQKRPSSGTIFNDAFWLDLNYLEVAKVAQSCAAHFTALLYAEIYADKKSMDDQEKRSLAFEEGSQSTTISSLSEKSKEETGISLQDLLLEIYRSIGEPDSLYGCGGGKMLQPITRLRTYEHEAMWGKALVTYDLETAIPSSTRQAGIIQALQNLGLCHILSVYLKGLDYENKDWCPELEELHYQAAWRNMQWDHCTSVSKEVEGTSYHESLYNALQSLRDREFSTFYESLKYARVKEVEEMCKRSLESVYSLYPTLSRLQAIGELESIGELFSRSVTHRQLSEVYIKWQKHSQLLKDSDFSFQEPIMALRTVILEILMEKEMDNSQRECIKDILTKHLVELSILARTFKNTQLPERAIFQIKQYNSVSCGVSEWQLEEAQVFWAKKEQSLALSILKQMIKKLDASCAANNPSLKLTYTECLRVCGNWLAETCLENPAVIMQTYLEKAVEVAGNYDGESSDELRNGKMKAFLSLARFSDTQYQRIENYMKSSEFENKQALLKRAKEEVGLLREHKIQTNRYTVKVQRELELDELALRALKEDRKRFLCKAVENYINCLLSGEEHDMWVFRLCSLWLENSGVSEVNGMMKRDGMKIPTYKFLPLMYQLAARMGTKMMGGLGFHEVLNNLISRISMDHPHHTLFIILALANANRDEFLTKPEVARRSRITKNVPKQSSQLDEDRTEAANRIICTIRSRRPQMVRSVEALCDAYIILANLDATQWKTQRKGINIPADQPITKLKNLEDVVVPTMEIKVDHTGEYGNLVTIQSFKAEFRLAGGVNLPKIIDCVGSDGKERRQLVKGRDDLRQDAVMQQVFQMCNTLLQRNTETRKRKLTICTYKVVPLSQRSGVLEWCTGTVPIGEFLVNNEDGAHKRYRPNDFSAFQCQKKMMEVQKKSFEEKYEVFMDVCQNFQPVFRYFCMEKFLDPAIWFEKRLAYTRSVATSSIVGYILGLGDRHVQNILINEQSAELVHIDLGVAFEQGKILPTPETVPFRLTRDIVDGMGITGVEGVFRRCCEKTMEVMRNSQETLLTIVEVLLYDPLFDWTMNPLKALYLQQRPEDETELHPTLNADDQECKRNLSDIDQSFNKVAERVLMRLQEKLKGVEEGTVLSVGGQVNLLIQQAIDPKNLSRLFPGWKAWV
# Chain of cellular ATM activity (Q13315 whole entry): as above
Compound,IC50 [1],IC50 [2],biological activity in the biochemical assay ([1]; qualitative statement used for stereochemical assignment)
O=c1cc(N2CCOCC2)nc(N2C[C@@H]3C[C@@H]3[C@@H]2Cc2ccccc2)[nH]1 [Example 211],3.7 nM,446 nM,
"C[C@@H]1CN(c2cc(=O)[nH]c(N3CCC(F)(F)[C@@H]3Cc3ccccc3)n2)CCO1 [Example 322, 2-((S)-2-benzyl-3,3-difluoropyrrolidin-1-yl)-6-((R)-2-methylmorpholino)pyrimidin-4(3H)-one]",33.2 nM,2840 nM,
"C[C@H]1CCN(c2nc(N3CCOCC3)cc(=O)[nH]2)[C@H]1Cc1ccccc1 [Example 261, 2-((2S,3S)-2-benzyl-3-methylpyrrolidin-1-yl)-6-morpholinopyrimidin-4(3H)-one]",61.3 nM,3050 nM,
"O=c1cc(N2CCOCC2)cc(N2CCCCC[C@@H]2Cc2ccsc2)[nH]1 [Example 64, (R)-4-morpholino-6-(2-(thiophen-3-ylmethyl)azepan-1-yl)pyridin-2(1H)-one]",42.8 nM,933 nM,
"O=c1cc(N2CCOCC2)cc(N2CC[C@@H](OC(F)F)[C@@H]2Cc2ccccc2)[nH]1 [Example 90, 6-((2S,3R)-2-benzyl-3-(difluoromethoxy)pyrrolidin-1-yl)-4-morpholinopyridin-2(1H)-one]",39.1 nM,874 nM,
"CC1C[C@H](Cc2ccccc2)N(c2cc(N3CCOCC3)cc(=O)[nH]2)C1 (single isomer, unassigned) [Example 100, 6-((2R,4R*)-2-benzyl-4-methylpyrrolidin-1-yl)-4-morpholinopyridin-2(1H)-one]",33.1 nM,1630 nM,
CC1(C)CCC[C@H](Cc2ccccc2)N(c2nc(N3CCOCC3)cc(=O)[nH]2)C1 [Example 245],17.3 nM,1240 nM,
"O=c1cc(N2CCOCC2)cc(N2CCC[C@@H]2Cc2ccccc2)[nH]1 [Example 1, (R)-6-(2-benzylpyrrolidin-1-yl)-4-morpholinopyridin-2(1H)-one]",36.2 nM,3380 nM,
"C[C@@H]1CN(c2cc(=O)[nH]c(N3CCC[C@@H]3Cc3ccc(Cl)c(Cl)c3)n2)CCO1 [Example 278, 2-[(2R)-2-[(3,4-dichlorophenyl)methyl]pyrrolidin-1-yl]-4-[(2R)-2-methylmorpholin-4-yl]-1H-pyrimidin-6-one]",89.7 nM,969 nM,
"C[C@@H]1CN(c2cc(=O)[nH]c(N3CC[C@@H](F)[C@@H]3Cc3ccccc3)n2)CCO1 [Example 319, 2-((2S,3R)-2-benzyl-3-fluoropyrrolidin-1-yl)-6-((R)-2-methylmorpholino)pyrimidin-4(3H)-one]",5.3 nM,538 nM,
"COC[C@@H](C)Oc1ccc(C[C@H]2CCCCCN2c2cc(N3CCOCC3)cc(=O)[nH]2)cc1 [Example 151, 6-((R)-2-(4-(((R)-1-methoxypropan-2-yl)oxy)benzyl)azepan-1-yl)-4-morpholinopyridin-2(1H)-one]",20.9 nM,1020 nM,
"Cc1ccc(C[C@H]2CCCN2c2nc(N3CCO[C@H](C)C3)cc(=O)[nH]2)cc1 [Example 274, 4-[(2R)-2-methylmorpholin-4-yl]-2-[(2R)-2-(p-tolylmethyl)pyrrolidin-1-yl]-1H-pyrimidin-6-one]",32.7 nM,410 nM,
"COc1ccccc1C[C@H]1CCCCCN1c1cc(N2CCOCC2)cc(=O)[nH]1 [Example 27, (R)-6-(2-(2-methoxybenzyl)azepan-1-yl)-4-morpholinopyridin-2(1H)-one]",16.6 nM,501 nM,
"O=c1cc(N2CCOCC2)cc(N2CCC[C@H]2Cc2ccccc2)[nH]1 [Example 2, (S)-6-(2-benzylpyrrolidin-1-yl)-4-morpholinopyridin-2(1H)-one]",,,lack of biological activity
"CC1CCC[C@H](Cc2ccccc2)N(c2nc(N3CCOCC3)cc(=O)[nH]2)C1 (single isomer, unassigned) [Example 246]",22.5 nM,1070 nM,
"CC1CCC[C@H](Cc2ccccc2)N(c2nc(N3CCOCC3)cc(=O)[nH]2)C1 (single isomer, unassigned) [Example 247]",1.5 nM,194 nM,
